Literature values, collected in US20050164162A1, “Methods for multiple parameters screening and evolution of cells to produce small molecules with multiple functionalities” (EVOLVA LTD., C/O DR. IUR. MARTIN EISENRING, priority 2002, published 2005).

Key:
[1] = co-administration of retinoids (LG100268)+TZDs; clinical studies
[2] = system: colorectal cancer; details: persons who regularly use Aspirin and other NSAIDs; population-based studies

SMILES: Cc1cc2c(cc1C1(c3ccc(C(=O)O)cn3)CC1)C(C)(C)CCC2(C)C [LG100268]
- increases insulin sensitivity and glucose uptake [1]: 60%

SMILES: CC(=O)Oc1ccccc1C(=O)O [Aspirin]
- decrease in relative risk for colorectal cancer [2]: 40-50%
